Experimental data: US4214093A, “Amino- or guanidino-1,2,3,4-tetrahydro-1-naphthoic esters” (Torii & Co., Ltd., priority 1977, dated 1980)
Structures can show the parent of a compound that is named as a salt. Where two headings read alike, the source gives them in different places.

Key:
Format in all cases: biochemical
Human Plasma Kallikrein = Human Plasma Kallikrein (Homo sapiens, UniProt P03952); experiment: Inhibitory effect on ester-hydrolyzing activity of human plasma kallikrein (TAMe substrate); conditions: for inhibition at 1000 µM: read-out: Kallikrein percent inhibition; for IC50: Table 4 bracketed value, read-out: Kallikrein ID50
Experimental: (§1) The enzyme-inhibitory activities in vitro of the compounds of this invention were measured by the following procedure according to the method of M. Muramatsu et al. [[…]. […] After the incubation, 1.5 ml of 2 M alkaline hydroxylamine was added and thoroughly mixed, and allowed to stand at room temperature for 15 minutes.

Bovine Thrombin = Bovine Thrombin (Bos taurus, UniProt P00735); experiment: Inhibitory effect on ester-hydrolyzing activity of bovine thrombin (TAMe substrate); conditions: for inhibition at 1000 µM: at 10^-3 M, in vitro, TAMe, read-out: Thrombin percent inhibition
Experimental: The enzyme-inhibitory activities in vitro of the compounds of this invention were measured by the following procedure according to the method of M. Muramatsu et al. [M. Muramatsu, T. Onishi, S. Makino, Y. Hayashi and S. Fujii: J. Biochem., 58, 214 (1965)]
To 0.1 ml of trypsin (5 μg/ml) were added 0.5 ml of 0.1 M borate buffer solution (pH 8.6) containing 10 mM CaCl2, and 0.1 ml of a varying concentration of an inhibitor solution, and preincubation was carried out at 37° C. for 5 minutes. Then, 10 μmoles of the substrate, TAMe (tosylarginine methyl ester), was added, and incubation was preformed at 37° C. for 30 minutes.
After the incubation, 1.5 ml of 2 M alkaline hydroxylamine was added and thoroughly mixed, and allowed to stand at room temperature for 15 minutes. Then, 1.0 ml of each of 18% trichloroacetic acid, 4 N HCl and 10% FeCl3 was added and thoroughly mixed. If necessary, the mixture was centrifuged at 3,000 rpm for 10 minutes, and the absorbance of the supernatant was measured at 530 nm.
It was measured by using 0.4 ml of bovine thrombin […], 0.02 M sodium phosphate buffer solution (pH 7.4) and TAMe as substrate following the method described in (1).

Human Plasmin = Human Plasmin (Homo sapiens, UniProt P00747); experiment: Inhibitory effect on ester-hydrolyzing activity of human plasmin (TAMe substrate); conditions: for IC50 / inhibition at 1000 µM: in vitro, TAMe; for IC50: Table 4 bracketed value, read-out: Plasmin ID50; for inhibition at 1000 µM: at 10^-3 M, read-out: Plasmin percent inhibition
Experimental: as §1, with “minutes. […] It was measured by using 0.1 ml of plasmin (generated by activation of plasminogen with streptokinase) and TAMe as substrate following the method described in (1).” for “minutes.”

Human Cl Esterase = molecular target: T1, Human Cl Esterase (Homo sapiens, UniProt P09871); experiment: Inhibitory effect on ester-hydrolyzing activity of human Cl esterase (ATEe substrate); conditions: for inhibition at 1000 µM: read-out: Cl-esterase percent inhibition; for IC50: pH 7.4, Table 4 bracketed value, read-out: Cl-esterase ID50
T1 sequence (P09871 438-688 limits assumed): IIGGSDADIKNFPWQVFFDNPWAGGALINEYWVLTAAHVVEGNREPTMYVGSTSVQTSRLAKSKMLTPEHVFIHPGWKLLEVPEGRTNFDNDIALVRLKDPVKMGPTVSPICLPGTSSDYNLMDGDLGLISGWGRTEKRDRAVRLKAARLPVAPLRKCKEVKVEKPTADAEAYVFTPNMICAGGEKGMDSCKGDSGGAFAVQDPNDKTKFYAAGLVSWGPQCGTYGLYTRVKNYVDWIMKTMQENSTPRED
T1 sequence (P09871 16-437 partner limits assumed): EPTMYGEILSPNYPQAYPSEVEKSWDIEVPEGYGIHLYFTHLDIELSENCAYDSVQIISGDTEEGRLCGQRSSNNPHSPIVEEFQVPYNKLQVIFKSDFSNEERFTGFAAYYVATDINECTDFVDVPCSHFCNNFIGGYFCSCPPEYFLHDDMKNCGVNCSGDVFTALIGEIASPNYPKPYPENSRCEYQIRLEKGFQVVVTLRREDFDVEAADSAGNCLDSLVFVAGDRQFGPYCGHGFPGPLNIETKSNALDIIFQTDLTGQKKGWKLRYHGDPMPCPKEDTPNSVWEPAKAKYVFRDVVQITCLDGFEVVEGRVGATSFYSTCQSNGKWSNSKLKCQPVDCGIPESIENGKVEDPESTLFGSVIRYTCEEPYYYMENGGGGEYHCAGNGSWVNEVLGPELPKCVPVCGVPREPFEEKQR
Experimental: It was measured by using 0.1 ml of Cl esterase, 0.1 ml of 0.02 M sodium phosphate buffer solution (pH 7.4 ) and 10 μmoles of ATEe (acetyltyrosine ethyl ester) as substrate following the method described in (1).

Trypsin = molecular target: T2, Trypsin (Bos taurus, UniProt P00760); experiment: Inhibitory effect on ester-hydrolyzing activity of trypsin (TAMe substrate); conditions: for inhibition at 1000 µM: read-out: Trypsin percent inhibition
T2 sequence (P00760 24-246): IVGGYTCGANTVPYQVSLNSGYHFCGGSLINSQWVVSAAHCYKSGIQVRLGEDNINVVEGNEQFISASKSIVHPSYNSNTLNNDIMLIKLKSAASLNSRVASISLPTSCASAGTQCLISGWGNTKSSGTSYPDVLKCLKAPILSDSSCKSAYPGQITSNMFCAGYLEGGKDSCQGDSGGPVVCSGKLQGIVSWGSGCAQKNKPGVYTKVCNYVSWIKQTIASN
Experimental: as §1

[1] = in vitro, TAMe, pH 8.6, 37° C., Table 4 bracketed value, read-out: Trypsin ID50

Chain of Human Plasmin (P00747 581-810 limits assumed): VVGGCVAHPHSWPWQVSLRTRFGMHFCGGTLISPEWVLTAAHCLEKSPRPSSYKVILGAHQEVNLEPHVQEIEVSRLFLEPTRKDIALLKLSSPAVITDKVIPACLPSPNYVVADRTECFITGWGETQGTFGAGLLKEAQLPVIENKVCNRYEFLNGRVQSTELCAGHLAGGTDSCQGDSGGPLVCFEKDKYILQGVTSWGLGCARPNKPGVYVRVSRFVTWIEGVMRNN
Chain of Human Plasmin (P00747 97-580 partner limits assumed): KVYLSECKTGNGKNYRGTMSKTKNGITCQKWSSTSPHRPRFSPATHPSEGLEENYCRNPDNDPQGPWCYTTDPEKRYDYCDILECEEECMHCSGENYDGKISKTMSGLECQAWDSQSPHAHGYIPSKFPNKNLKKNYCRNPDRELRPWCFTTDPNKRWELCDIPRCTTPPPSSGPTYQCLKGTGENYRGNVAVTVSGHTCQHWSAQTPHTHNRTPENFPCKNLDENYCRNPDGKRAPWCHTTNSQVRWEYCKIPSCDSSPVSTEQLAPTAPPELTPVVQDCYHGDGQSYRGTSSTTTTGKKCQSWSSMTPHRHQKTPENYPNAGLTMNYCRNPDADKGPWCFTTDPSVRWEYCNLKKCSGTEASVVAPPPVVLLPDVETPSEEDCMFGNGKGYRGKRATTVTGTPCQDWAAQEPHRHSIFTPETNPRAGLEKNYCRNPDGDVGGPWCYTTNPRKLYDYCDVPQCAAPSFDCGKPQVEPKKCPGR
Chain of Human Plasma Kallikrein (P03952 391-638 limits assumed): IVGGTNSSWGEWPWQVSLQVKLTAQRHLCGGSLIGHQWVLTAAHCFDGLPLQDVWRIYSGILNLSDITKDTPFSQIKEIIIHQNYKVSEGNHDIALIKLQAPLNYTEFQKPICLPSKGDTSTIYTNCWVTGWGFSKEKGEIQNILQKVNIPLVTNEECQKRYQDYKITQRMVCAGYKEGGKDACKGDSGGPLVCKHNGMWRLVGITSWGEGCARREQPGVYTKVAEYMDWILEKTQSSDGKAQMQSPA
Chain of Human Plasma Kallikrein (P03952 20-390 partner limits assumed): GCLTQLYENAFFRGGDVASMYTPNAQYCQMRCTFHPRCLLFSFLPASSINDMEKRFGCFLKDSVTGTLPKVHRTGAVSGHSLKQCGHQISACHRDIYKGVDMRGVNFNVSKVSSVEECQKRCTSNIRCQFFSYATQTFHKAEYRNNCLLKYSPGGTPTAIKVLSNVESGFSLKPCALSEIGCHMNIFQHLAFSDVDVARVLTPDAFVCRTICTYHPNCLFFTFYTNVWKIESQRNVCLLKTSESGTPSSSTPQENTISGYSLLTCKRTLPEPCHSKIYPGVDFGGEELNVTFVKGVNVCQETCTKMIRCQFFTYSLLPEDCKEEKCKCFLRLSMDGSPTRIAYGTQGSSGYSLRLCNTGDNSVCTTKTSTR

| SMILES | IC50 (Bovine Thrombin) [µM] | IC50 (Human Plasmin) [µM] | IC50 (Trypsin; [1]) [µM] | inhibition at 1000 µM (Human Plasmin) [%] | inhibition at 1000 µM (Bovine Thrombin) [%] | inhibition at 1000 µM (Human Cl Esterase; at 10^-3 M, in vitro, ATEe) [%] | IC50 (Human Cl Esterase; in vitro, ATEe) [µM] | also measured |
| --- | --- | --- | --- | --- | --- | --- | --- | --- |
| N=C(N)Nc1cccc2c1CCCC2C(=O)Oc1ccc(C(=O)OCC(N)=O)cc1 (stereo not drawn) [Compound 126] | 290 | 580 | 75 | – | – | – | – | inhibition at 1000 µM (Human Plasma Kallikrein; at 10^-3 M, in vitro, TAMe): 46.9%; inhibition at 1000 µM (Human Cl Esterase): 30.6% |
| CN(C)C(=O)COC(=O)c1ccc(OC(=O)C2CCCc3c(N)cccc32)cc1 (stereo not drawn) [Compound 72] | 120 | – | 25 | < 3.2 | – | – | – | IC50 (Human Plasma Kallikrein; in vitro, TAMe): 1000 µM; inhibition at 1000 µM (Human Cl Esterase): < 3.2% |
| CCCOC(=O)c1ccc(OC(=O)C2CCCc3ccc(N)cc32)cc1 (stereo not drawn) [Compound 96] | – | – | 68 | < 3.2 | 25.1 | < 3.2 | – | – |
| CN(C)C(=O)COC(=O)CCc1ccc(OC(=O)C2CCCc3ccc(NC(=N)N)cc32)cc1 (stereo not drawn) [Compound 158] | 100 | 400 | – | – | – | – | 700 | IC50 (Human Plasma Kallikrein; in vitro, TAMe): 420 µM; inhibition at 1000 µM (Trypsin): 29.1% |
| CCCOC(=O)c1ccc(OC(=O)C2CCCc3c(N)cccc32)cc1 (stereo not drawn) [Compound 68] | – | – | 41 | < 3.2 | < 3.2 | < 3.2 | – | – |
| N=C(N)Nc1ccc2c(c1)C(C(=O)Oc1cccc3c1CCCC3)CCC2 (stereo not drawn) [Compound 167] | – | 1000 | – | – | < 3.2 | – | 420 | IC50 (Human Plasma Kallikrein; in vitro, TAMe): 200 µM; inhibition at 1000 µM (Trypsin; at 10^-3 M, in vitro, TAMe): 44.8% |
| CCOC(=O)c1ccc(OC(=O)C2CCCc3c(NC(=N)N)cccc32)cc1 (stereo not drawn) [Compound 121, ethoxycarbonylphenyl 5-guanidino-1,2,3,4-tetrahydro-1-naphthoate hydrochloride] | – | – | – | – | – | – | – | IC50 (Trypsin; Example 6, read-out: ID50, tosylarginine methyl ester hydrolyzing activity of trypsin (unit inferred)): 74 µM |
| Cl.Nc1ccc2c(c1)C(C(=O)Oc1ccc(Cl)cc1)CCC2 (stereo not drawn) [Compound 83, p-chlorophenyl 7-amino-1,2,3,4-tetrahydro-1-naphthoate hydrochloride] | – | – | – | – | – | – | – | inhibitory activity on kallikrein (Human Plasma Kallikrein; text of Examples): no inhibitory action; inhibitory activity on thrombin (Bovine Thrombin; text of Examples): no inhibitory action; inhibitory activity on plasmin (Human Plasmin; text of Examples): no inhibitory action; inhibitory activity on Cl-esterase (Human Cl Esterase; text of Examples): no inhibitory action |
| Nc1cccc2c1CCCC2C(=O)Oc1ccc(OC(=O)C2CCCc3c(N)cccc32)cc1 (stereo not drawn) [Compound 78] | – | – | 36 | < 3.2 | 24.4 | 15.2 | – | IC50 (Human Plasma Kallikrein; in vitro, TAMe): 360 µM |
| N#Cc1ccc(OC(=O)C2CCCc3ccc(NC(=N)N)cc32)cc1 (stereo not drawn) [Compound 163] | 17 | 73 | 130 | – | – | – | 400 | IC50 (Human Plasma Kallikrein; in vitro, TAMe): 52 µM |
| CCOC(=O)COC(=O)c1ccc(OC(=O)C2CCCc3c(N)cccc32)cc1 (stereo not drawn) [Compound 70] | – | – | 52 | 26.2 | 22 | < 3.2 | – | inhibition at 1000 µM (Human Plasma Kallikrein; at 10^-3 M, in vitro, TAMe): 14.1% |
| CCOC(=O)COC(=O)CCc1ccc(OC(=O)C2CCCc3ccc(NC(=N)N)cc32)cc1 (stereo not drawn) [Compound 157] | 120 | 210 | – | – | – | – | 420 | inhibition at 1000 µM (Human Plasma Kallikrein): 48.5%; inhibition at 1000 µM (Trypsin): 48.8% |
| COC(=O)c1cccc(OC(=O)C2CCCc3c(N)cccc32)c1 (stereo not drawn) [Compound 64] | – | – | 61 | < 3.2 | 20.3 | < 3.2 | – | inhibition at 1000 µM (Human Plasma Kallikrein; at 10^-3 M, in vitro, TAMe): 28% |
| CCOC(=O)COC(=O)c1ccc(OC(=O)C2CCCc3ccc(N)cc32)cc1 (stereo not drawn) [Compound 98] | – | – | 60 | 24.6 | 40.5 | < 3.2 | – | inhibition at 1000 µM (Human Plasma Kallikrein; at 10^-3 M, in vitro, TAMe): < 3.2% |
| COC(=O)c1ccc(OC(=O)C2CCCc3c(N)cccc32)cc1 (stereo not drawn) [Compound 63] | 1000 | – | 18 | 35 | – | – | – | inhibition at 1000 µM (Human Cl Esterase): 16.5% |
| CCCOC(=O)c1ccc(OC(=O)C2CCCc3c(NC(=N)N)cccc32)cc1 (stereo not drawn) [Compound 123] | – | 900 | – | – | 46.7 | – | 350 | inhibition at 1000 µM (Trypsin; at 10^-3 M, in vitro, TAMe): 45.7% |
| CCCOC(=O)c1ccc(OC(=O)C2CCCc3ccc(NC(=N)N)cc32)cc1 (stereo not drawn) [Compound 151] | 42 | 480 | 100 | – | – | – | 330 | – |
